{
  "source": "BindingDB's records for doi:10.1016/j.bmcl.2003.08.078",
  "about": "(University of Florida, 2003)",
  "molecular_target": "Melanocortin receptor 4 (Mus musculus, UniProt P56450)",
  "sequence (P56450 whole entry)": "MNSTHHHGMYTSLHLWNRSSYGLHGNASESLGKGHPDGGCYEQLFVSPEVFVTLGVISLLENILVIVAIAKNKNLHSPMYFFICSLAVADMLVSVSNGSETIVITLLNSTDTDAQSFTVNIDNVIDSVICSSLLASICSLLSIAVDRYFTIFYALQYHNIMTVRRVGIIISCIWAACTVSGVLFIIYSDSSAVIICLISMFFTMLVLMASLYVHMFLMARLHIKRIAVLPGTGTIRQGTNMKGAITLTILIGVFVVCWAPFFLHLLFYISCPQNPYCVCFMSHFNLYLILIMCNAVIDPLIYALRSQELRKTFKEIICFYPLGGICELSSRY",
  "assay": "ChEBML_104255",
  "source_text": "Agonistic activity evaluated at melanocortin 4 receptor (MC4R) of mouse HEK293 cells",
  "note": "pEC50: −log10 of the molar value.",
  "data": [
    {"smiles": "CC(=O)N[C@@H](Cc1cnc[nH]1)C(=O)N[C@H](Cc1ccccc1)C(=O)N[C@@H](CCCN=C(N)N)C(=O)N[C@@H](Cc1c[nH]c2ccccc12)C(N)=O", "note": "[(S)-2-{(R)-2-[(S)-2-Acetylamino-3-(1H-imidazol-4-yl)-propionylamino]-3-phenyl-propionylamino}-5-guanidino-pentanoic acid [(S)-1-carbamoyl-2-(1H-indol-3-yl)-ethyl]-amide]", "values": [
      {"measurement": "pEC50", "value": 7.77}
    ]}
  ]
}
